The experiment has as its target T1, human PRMT6 (Homo sapiens, UniProt Q96LA8).
T1 construct: Flag-PRMT6-His was eluted with 200 ug/ml FLAG peptide in the same buffer; made in house; host or cells: HEK 293F cells (BacMam baculovirus)
As to the kind of experiment: PRMT6 Biochemical Assay. Conditions: biochemical evaluation, peptide substrate. The text has this:
S-adenosylmethionine (SAM), S-adenosylhomocysteine (SAH), bicine, Tween20, dimethylsulfoxide (DMSO), bovine skin gelatin (BSG), sodium butyrate and Tris(2-carboxyethyl)phosphine hydrochloride solution (TCEP) were purchased from Sigma-Aldrich at the highest level of purity possible. ^3H-SAM was purchase from American Radiolabeled Chemicals with a specific activity of 80 Ci/mmol. 384-well streptavidin Flashplates were purchased from PerkinElmer.
Peptide representative of human histone H4 residues 36-50 was synthesized with an N-terminal linker-affinity tag motif and a C-terminal amide cap by 21st Century Biochemicals. The peptide was purified by high-performance liquid chromatography (HPLC) to greater than 95% purity and confirmed by liquid chromatography mass spectrometry (LC-MS). The sequence was Biot-Ahx-[…]-amide and contained a monomethylated lysine at position 44 (SEQ ID NO.: 5). […]
The assays were all performed in a buffer consisting of 20 mM Bicine (pH=7.6), 1 mM TCEP, 0.005% BSG, and 0.002% Tween 20, prepared on the day of use. […] The plates were then read in a PerkinElmer TopCount plate reader to measure the quantity of ^3H-labeled peptide bound to the Flashplate surface, measured as disintegrations per minute (dpm) or alternatively, referred to as counts per minute (cpm). […]

Molecules are shown by their SMILES.

T1 sequence (Q96LA8 with tags, fused parts or gaps): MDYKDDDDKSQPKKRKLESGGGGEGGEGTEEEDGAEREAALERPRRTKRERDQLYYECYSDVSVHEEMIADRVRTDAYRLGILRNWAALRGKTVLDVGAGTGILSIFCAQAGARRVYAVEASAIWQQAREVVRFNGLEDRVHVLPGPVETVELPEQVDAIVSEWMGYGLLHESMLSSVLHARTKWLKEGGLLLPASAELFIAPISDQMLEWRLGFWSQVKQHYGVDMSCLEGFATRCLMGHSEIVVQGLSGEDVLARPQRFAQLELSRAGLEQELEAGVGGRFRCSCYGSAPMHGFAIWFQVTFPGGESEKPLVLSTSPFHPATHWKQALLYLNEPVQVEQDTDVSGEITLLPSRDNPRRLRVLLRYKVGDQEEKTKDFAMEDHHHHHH

The molecule `CN(CCN)Cc1n[nH]c2cccc(OCc3ccccc3)c12` [Compound 1] had an IC50 of at most 100 nM.
